Data as given in patent US20210045385A1, “PYRIDAZINONE-SUBSTITUTED KETOXIMES AS HERBICIDES” (FMC Corporation, priority 2018, published 2021).

Legend:
Assay type in all cases: in vivo
[1] = test system: sedge umbrella (small-flower umbrella sedge, Cyperus difformis); assay: Test D flooded paddy test, visual plant response rating; details: 250 g ai/ha, scale 0 to 100 (0 no effect, 100 complete control), 13 to 15 d
Procedure, shortened: (§1)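 Rating is visual, on a 0 (no effect) to 100 (complete control) scale versus controls, taken 13 to 15 d after treatment in a greenhouse. Treatment went into paddy water kept 3 cm above the soil surface, with plants at the 2-leaf stage.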

[2] = test system: barnyardgrass (Echinochloa crus-galli); assay: as above; details: 250 g ai/ha, scale 0 to 100 (0 no effect, 100 complete control), 13 to 15 d
Procedure, shortened: as §1

rice (Oryza sativa) = assay: as above; details: 250 g ai/ha, scale 0 to 100 (0 no effect, 100 complete control), 13 to 15 d
Procedure, shortened: as §1

[3] = test system: duck salad (Heteranthera limosa); assay: as above; details: 250 g ai/ha, scale 0 to 100 (0 no effect, 100 complete control), 13 to 15 d
Procedure, shortened: as §1

[4] = test system: foxtail, giant (giant foxtail, Setaria faberi); assay: Test C preemergence, visual plant response rating
Procedure, shortened: (§2)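 Visual injury on a 0 (no effect) to 100 (complete control) scale versus untreated controls, scored approximately 10 d after treatment under greenhouse conditions. Treatments used surfactant-containing non-phytotoxic solvent formulations, sprayed onto loam–sand soil preemergence or onto one- to two-leaf plants 2–10 cm tall postemergence.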

[5] = test system: Italian ryegrass (Lolium mutiflorum); assay: Test C preemergence, visual plant response rating
Procedure, shortened: as §2

kochia (Bassia scoparia) [6] = assay: Test C preemergence, visual plant response rating
Procedure, shortened: as §2

[7] = test system: pigweed (Amaranthus retroflexus); assay: Test C preemergence, visual plant response rating
Procedure, shortened: as §2

[8] = test system: ragweed (common ragweed, Ambrosia artemisiifolia); assay: Test C preemergence, visual plant response rating
Procedure, shortened: as §2

[9] = test system: barnyardgrass (Echinochloa crus-galli); assay: Test C preemergence, visual plant response rating
Procedure, shortened: as §2

[10] = test system: foxtail, giant (giant foxtail, Setaria faberi); assay: Test C postemergence, visual plant response rating
Procedure, shortened: as §2

[11] = test system: Italian ryegrass (Lolium mutiflorum); assay: Test C postemergence, visual plant response rating
Procedure, shortened: as §2

[12] = test system: galium (catchweed bedstraw, Galium aparine); assay: Test C postemergence, visual plant response rating
Procedure, shortened: as §2

[13] = test system: blackgrass (Alopecurus myosuroides); assay: Test C postemergence, visual plant response rating
Procedure, shortened: as §2

corn (Zea mays) = assay: Test C postemergence, visual plant response rating
Procedure, shortened: as §2

kochia (Bassia scoparia) [14] = assay: Test C postemergence, visual plant response rating
Procedure, shortened: as §2

[15] = test system: pigweed (Amaranthus retroflexus); assay: Test C postemergence, visual plant response rating
Procedure, shortened: as §2

[16] = test system: ragweed (common ragweed, Ambrosia artemisiifolia); assay: Test C postemergence, visual plant response rating
Procedure, shortened: as §2

[17] = test system: barnyardgrass (Echinochloa crus-galli); assay: Test C postemergence, visual plant response rating
Procedure, shortened: as §2

[18] = test system: wheat (Triticum aestivum); assay: Test C postemergence, visual plant response rating
Procedure, shortened: as §2

[19] = Test C, 31 g ai/ha, 0 is no effect, 100 is complete control
[20] = Test C, postemergence, 125 g ai/ha

Row | Structure (SMILES) | Plant response rating, Sedge, Umbrella (Flood) [1] | Plant response rating, Barnyardgrass (Flood) [2] | Plant response rating, Rice (Flood) (rice (Oryza sativa)) | Plant response rating, Ducksalad (Flood) [3] | Foxtail, Giant plant response rating (0 to 100 scale) ([4]; 125 g ai/ha) | Foxtail, Giant plant response rating (0 to 100 scale) [4, 19] | Ryegrass, Italian plant response rating (0 to 100 scale) ([5]; 125 g ai/ha) | Ryegrass, Italian plant response rating (0 to 100 scale) [5, 19] | Kochia plant response rating (0 to 100 scale) (kochia (Bassia scoparia) [6]; 125 g ai/ha) | Kochia plant response rating (0 to 100 scale) (kochia (Bassia scoparia) [6]; [19]) | Pigweed plant response rating (0 to 100 scale) ([7]; 125 g ai/ha) | Pigweed plant response rating (0 to 100 scale) [7, 19] | Ragweed plant response rating (0 to 100 scale) ([8]; 125 g ai/ha) | Ragweed plant response rating (0 to 100 scale) [8, 19] | Barnyardgrass plant response rating (0 to 100 scale) ([9]; 125 g ai/ha) | Barnyardgrass plant response rating (0 to 100 scale) [9, 19] | Foxtail, Giant plant response rating (0 to 100 scale) ([10]; Postemergence, 31 g ai/ha) | Foxtail, Giant plant response rating (0 to 100 scale) [10, 20] | Ryegrass, Italian plant response rating (0 to 100 scale) ([11]; Postemergence, 31 g ai/ha) | Ryegrass, Italian plant response rating (0 to 100 scale) [11, 20] | other results
1 | C#CCO/N=C(\c1ccc(Cl)c(Cl)c1)c1c(O)c(C)nn(C)c1=O [Compound 166] | 0 | 0 | 0 | 0 | 60 | 0 | 60 | 10 | 80 | 0 | 50 | 0 | 10 | 0 | 50 | 0 | 10 | 30 | 0 | 80 | Galium plant response rating (0 to 100 scale) ([12]; Postemergence, 31 g ai/ha): 50; Galium plant response rating (0 to 100 scale) [12, 20]: 80; Blackgrass plant response rating (0 to 100 scale) ([13]; Postemergence, 31 g ai/ha): 0; Blackgrass plant response rating (0 to 100 scale) [13, 20]: 20; Corn plant response rating (0 to 100 scale) (corn (Zea mays); Postemergence, 31 g ai/ha): 0; Corn plant response rating (0 to 100 scale) (corn (Zea mays); [20]): 20; Kochia plant response rating (0 to 100 scale) (kochia (Bassia scoparia) [14]; Postemergence, 31 g ai/ha): 30; Kochia plant response rating (0 to 100 scale) (kochia (Bassia scoparia) [14]; [20]): 40; Pigweed plant response rating (0 to 100 scale) ([15]; Postemergence, 31 g ai/ha): 30; Pigweed plant response rating (0 to 100 scale) [15, 20]: 50; Ragweed plant response rating (0 to 100 scale) ([16]; Postemergence, 31 g ai/ha): 20; Ragweed plant response rating (0 to 100 scale) [16, 20]: 30; Barnyardgrass plant response rating (0 to 100 scale) ([17]; Postemergence, 31 g ai/ha): 20; Barnyardgrass plant response rating (0 to 100 scale) [17, 20]: 30; Wheat plant response rating (0 to 100 scale) ([18]; Postemergence, 31 g ai/ha): 0; Wheat plant response rating (0 to 100 scale) [18, 20]: 60
2 | Cc1nn(C)c(=O)c(C(=NOC(C)C)c2cc(Cl)cc(Cl)c2F)c1O [Compound 167] | 95 | 95 | 65 | 70 | 100 | 100 | 100 | 100 | 100 | 70 | 100 | 100 | 100 | 80 | 100 | 100 | 90 | 90 | 100 | 100 | Galium plant response rating (0 to 100 scale) ([12]; Postemergence, 31 g ai/ha): 80; Galium plant response rating (0 to 100 scale) [12, 20]: 100; Blackgrass plant response rating (0 to 100 scale) ([13]; Postemergence, 31 g ai/ha): 80; Blackgrass plant response rating (0 to 100 scale) [13, 20]: 90; Corn plant response rating (0 to 100 scale) (corn (Zea mays); Postemergence, 31 g ai/ha): 30; Corn plant response rating (0 to 100 scale) (corn (Zea mays); [20]): 70; Kochia plant response rating (0 to 100 scale) (kochia (Bassia scoparia) [14]; Postemergence, 31 g ai/ha): 80; Kochia plant response rating (0 to 100 scale) (kochia (Bassia scoparia) [14]; [20]): 100; Pigweed plant response rating (0 to 100 scale) ([15]; Postemergence, 31 g ai/ha): 100; Pigweed plant response rating (0 to 100 scale) [15, 20]: 100; Ragweed plant response rating (0 to 100 scale) ([16]; Postemergence, 31 g ai/ha): 100; Ragweed plant response rating (0 to 100 scale) [16, 20]: 100; Barnyardgrass plant response rating (0 to 100 scale) ([17]; Postemergence, 31 g ai/ha): 80; Barnyardgrass plant response rating (0 to 100 scale) [17, 20]: 90; Wheat plant response rating (0 to 100 scale) ([18]; Postemergence, 31 g ai/ha): 70; Wheat plant response rating (0 to 100 scale) [18, 20]: 100
3 | CO/N=C(/c1cc(C)cc(Cl)c1)c1c(O)c(C)nn(C)c1=O [Compound 173] | 0 | 0 | 0 | 0 | 90 | 40 | 100 | 30 | 80 | 60 | 30 | 30 | 90 | 30 | 50 | 60 | 30 | 80 | 80 | 100 | Galium plant response rating (0 to 100 scale) ([12]; Postemergence, 31 g ai/ha): 90; Galium plant response rating (0 to 100 scale) [12, 20]: 100; Blackgrass plant response rating (0 to 100 scale) ([13]; Postemergence, 31 g ai/ha): 20; Blackgrass plant response rating (0 to 100 scale) [13, 20]: 40; Corn plant response rating (0 to 100 scale) (corn (Zea mays); Postemergence, 31 g ai/ha): 0; Corn plant response rating (0 to 100 scale) (corn (Zea mays); [20]): 20; Kochia plant response rating (0 to 100 scale) (kochia (Bassia scoparia) [14]; Postemergence, 31 g ai/ha): 60; Kochia plant response rating (0 to 100 scale) (kochia (Bassia scoparia) [14]; [20]): 90; Pigweed plant response rating (0 to 100 scale) ([15]; Postemergence, 31 g ai/ha): 70; Pigweed plant response rating (0 to 100 scale) [15, 20]: 90; Ragweed plant response rating (0 to 100 scale) ([16]; Postemergence, 31 g ai/ha): 80; Ragweed plant response rating (0 to 100 scale) [16, 20]: 100; Barnyardgrass plant response rating (0 to 100 scale) ([17]; Postemergence, 31 g ai/ha): 50; Barnyardgrass plant response rating (0 to 100 scale) [17, 20]: 80; Wheat plant response rating (0 to 100 scale) ([18]; Postemergence, 31 g ai/ha): 0; Wheat plant response rating (0 to 100 scale) [18, 20]: 0
4 | CON=C(c1cc(C)cc(Cl)c1)c1c(O)c(C)nn(C)c1=O [Compound 174] | 0 | 0 | 0 | 0 | 90 | 70 | 90 | 80 | 80 | 20 | 70 | 20 | 90 | 60 | 90 | 70 | 50 | 90 | 60 | 100 | Galium plant response rating (0 to 100 scale) ([12]; Postemergence, 31 g ai/ha): 100; Galium plant response rating (0 to 100 scale) [12, 20]: 100; Blackgrass plant response rating (0 to 100 scale) ([13]; Postemergence, 31 g ai/ha): 30; Blackgrass plant response rating (0 to 100 scale) [13, 20]: 40; Corn plant response rating (0 to 100 scale) (corn (Zea mays); Postemergence, 31 g ai/ha): 10; Corn plant response rating (0 to 100 scale) (corn (Zea mays); [20]): 20; Kochia plant response rating (0 to 100 scale) (kochia (Bassia scoparia) [14]; Postemergence, 31 g ai/ha): 70; Kochia plant response rating (0 to 100 scale) (kochia (Bassia scoparia) [14]; [20]): 90; Pigweed plant response rating (0 to 100 scale) ([15]; Postemergence, 31 g ai/ha): 60; Pigweed plant response rating (0 to 100 scale) [15, 20]: 80; Ragweed plant response rating (0 to 100 scale) ([16]; Postemergence, 31 g ai/ha): 80; Ragweed plant response rating (0 to 100 scale) [16, 20]: 90; Barnyardgrass plant response rating (0 to 100 scale) ([17]; Postemergence, 31 g ai/ha): 60; Barnyardgrass plant response rating (0 to 100 scale) [17, 20]: 90; Wheat plant response rating (0 to 100 scale) ([18]; Postemergence, 31 g ai/ha): 0; Wheat plant response rating (0 to 100 scale) [18, 20]: 0
